Patent EP1363899B1, “QUINAZOLONE DERIVATIVES AS ALPHA 1A/B ADRENERGIC RECEPTOR ANTAGONISTS” (F.HOFFMANN-LA ROCHE AG, priority 2001, dated 2002)

Assays:
[1] = target: T1, alpha-1D adrenoceptor (Homo sapiens, UniProt P25100); test: [3H]prazosin binding (alpha1-adrenoceptor) assay, alpha-1D; settings: membranes of transfected CHO-KI cells, read-out: affinity towards the alpha-1D adrenoceptor (pKi) (converted)
T1 construct: expressed in transfected cells; host or cells: CHO-K1
T1 sequence (P25100 1-572): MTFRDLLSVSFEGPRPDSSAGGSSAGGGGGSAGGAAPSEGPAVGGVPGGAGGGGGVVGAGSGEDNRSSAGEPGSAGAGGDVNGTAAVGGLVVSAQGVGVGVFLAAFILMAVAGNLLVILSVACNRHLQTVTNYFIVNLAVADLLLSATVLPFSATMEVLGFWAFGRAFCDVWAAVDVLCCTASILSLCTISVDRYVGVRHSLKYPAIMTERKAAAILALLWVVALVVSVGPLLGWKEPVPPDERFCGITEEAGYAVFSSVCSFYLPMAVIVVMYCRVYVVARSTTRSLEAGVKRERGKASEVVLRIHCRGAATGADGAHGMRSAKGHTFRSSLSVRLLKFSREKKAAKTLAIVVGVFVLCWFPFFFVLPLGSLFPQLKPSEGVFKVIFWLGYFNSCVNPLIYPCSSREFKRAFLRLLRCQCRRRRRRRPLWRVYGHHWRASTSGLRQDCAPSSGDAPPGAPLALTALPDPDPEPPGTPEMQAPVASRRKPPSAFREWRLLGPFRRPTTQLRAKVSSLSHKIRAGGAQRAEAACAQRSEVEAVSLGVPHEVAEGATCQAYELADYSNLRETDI
Experimental: (§1) Alpha1A, alpha1B, and alpha1D adrenoceptor transfected CHO-KI cells, prepared using the methods described by Chang et al., FEBS Lett. 1998, 422:279-283, were grown to confluence in T-162 tissue culture flasks in Ham's F-12 culture medium supplemented with 10% fetal bovine serum, geneticin (150 µg/mL) and streptomycin/penicillin (30 µg/mL/30 µg/mL) at 37 °C in 7% CO2. Cells were harvested by incubating with phosphate-buffered saline (PBS) containing 30 µM EDTA for 5-10 min at 37 °C. Cells were pelleted by centrifuging at 500 x g for 5 min, and the pelleted cells were homogenized (Polytron homogenizer) in 10 vols (w/v) of 50 mM Tris, 1 mM EDTA, (homogenisation buffer, pH 7.4 at 4 °C). The homogenate was centrifuged at 45,000 x g for 20 min. The pellet was resuspended in the homogenizing buffer and rehomogenized. The resulting homogenate was centrifuged at 45,000 x g for 20 min. The pellet was resuspended in 50 mM Tris buffer (pH 7.4 at 4 °C), aliquoted, frozen, and stored at -80 °C for further use.
(§2) The membranes were thawed at room temperature and diluted in assay buffer (50 mM Tris buffer at […]) at 37 °C and homogenized using the Polytron tissue disrupter. The membranes were incubated with the radioligand ([^3H]prazosin, NEN, 0.1 - 0.5 nM) and test compound at 37 °C for 30 min. The membranes were then filtered over polyethyleneimine-treated GF/B unifilter plates using a Packard Filtermate Harvester and washed with ice-cold 50 mM Tris-HCl, 1 mM EDTA buffer (3 x 3 sec. washes). Scintillation cocktail was added to the filter plates and bound radioligand determined by liquid scintillation spectrophotometry.
(§3) For each experiment, total binding (in the absence of any test or reference compounds) and non-specific binding (10 µM phentolamine) were determined. For each sample tested, the concentration producing 50% inhibition of binding (IC50) and Hill Slope (nH) was determined using iterative non-linear curve fitting techniques with Kaleidagraph (Synergy Software) or other appropriate software. If the radioligand KD was known, the inhibition dissociation constant (K1) of each ligand was determined according to the method of Cheng and Prusoff (Cheng, Y-C. and Prusoff, W.H., Biochem. Pharmacol., 1973, 22, 3099-3108).

[2] = target: T2, alpha-1A adrenoceptor (Homo sapiens, UniProt P35348); test: [3H]prazosin binding (alpha1-adrenoceptor) assay, alpha-1A; settings: membranes of transfected CHO-KI cells, read-out: affinity towards the alpha-1A adrenoceptor (pKi) (converted)
T2 construct: expressed in transfected cells; host or cells: CHO-K1
T2 sequence (P35348 1-466): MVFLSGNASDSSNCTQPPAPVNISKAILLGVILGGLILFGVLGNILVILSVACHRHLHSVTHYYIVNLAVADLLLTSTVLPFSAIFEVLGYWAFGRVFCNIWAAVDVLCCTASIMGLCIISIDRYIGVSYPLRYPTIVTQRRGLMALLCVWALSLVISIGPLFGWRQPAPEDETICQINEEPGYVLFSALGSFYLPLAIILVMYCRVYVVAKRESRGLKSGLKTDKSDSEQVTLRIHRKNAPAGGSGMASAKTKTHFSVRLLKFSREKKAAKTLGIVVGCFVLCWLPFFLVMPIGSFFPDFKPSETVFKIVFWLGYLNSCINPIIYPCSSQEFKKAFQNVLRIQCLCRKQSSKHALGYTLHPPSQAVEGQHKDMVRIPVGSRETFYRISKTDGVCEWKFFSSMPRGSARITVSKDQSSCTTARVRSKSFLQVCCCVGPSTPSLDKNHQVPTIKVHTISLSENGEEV
Experimental: as §1, §2, §3

[3] = target: T3, alpha-1B adrenoceptor (Homo sapiens, UniProt P35368); test: [3H]prazosin binding (alpha1-adrenoceptor) assay, alpha-1B; settings: membranes of transfected CHO-KI cells, read-out: affinity towards the alpha-1B adrenoceptor (pKi) (converted)
T3 construct: expressed in transfected cells; host or cells: CHO-K1
T3 sequence (P35368 1-520): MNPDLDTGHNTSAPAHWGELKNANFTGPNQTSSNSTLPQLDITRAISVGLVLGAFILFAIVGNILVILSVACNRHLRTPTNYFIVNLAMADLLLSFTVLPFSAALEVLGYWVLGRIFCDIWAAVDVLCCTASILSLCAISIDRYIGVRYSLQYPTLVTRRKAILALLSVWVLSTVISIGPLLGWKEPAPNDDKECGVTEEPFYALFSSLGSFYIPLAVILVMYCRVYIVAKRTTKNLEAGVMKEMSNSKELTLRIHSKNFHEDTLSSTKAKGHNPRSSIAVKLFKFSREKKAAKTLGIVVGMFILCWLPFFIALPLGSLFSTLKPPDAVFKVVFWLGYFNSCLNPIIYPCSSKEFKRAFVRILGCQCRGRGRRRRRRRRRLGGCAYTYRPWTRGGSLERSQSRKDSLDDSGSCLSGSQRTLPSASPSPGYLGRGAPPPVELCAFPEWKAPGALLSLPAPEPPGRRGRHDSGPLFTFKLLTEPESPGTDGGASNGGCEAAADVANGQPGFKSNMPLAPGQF
Experimental: as §1, §2, §3

[4] = test system: hypogastric nerve stimulation-induced increases in intraurethral pressure and phenylephrine-induced increases in diastolic blood pressure; test: Dog in vivo blood and intraurethral pressure assay; settings: anesthetized mongrel dogs, i.v. bolus, increasing doses
Experimental: The following describes an in vivo assay for measuring the relative effect of test compounds on hypogastric nerve stimulation-induced increases in intraurethral pressure and phenylephrine-induced increases in diastolic blood pressure in anesthetized dog.
Mongrel dogs (10 to 20 kg) were fasted for 12 to 18 hours and anesthetized with […] (35 mg/kg, i.v.). An endotracheal tube was inserted and thereafter the lungs were mechanically ventilated with room air. The right femoral vein was isolated and cannulated with two polyethylene cannulae, one for the administration of a continuous infusion of phenobarbital sodium (5 to 10 mg/kg/hr) and the other for bolus administration of test substances. The right femoral artery was isolated and cannulated to the abdominal aorta with a fluid filled polyethylene cannula connected to an external pressure transducer for monitoring diastolic aortic pressure (DAP). The bladder was exposed via a ventral midline abdominal incision and emptied of urine through a 22 gauge needle. The bladder was cannulated through a stab incision with a water filled balloon catheter connected to an external pressure transducer for monitoring prostatic intraurethral pressure (IUP). The right hypogastric nerve (HGN) was carefully isolated and attached to a Dastre's electrode for nerve stimulation. […]

Row | Ki [1] | Ki [2] | Ki [3] | SMILES | inhibition of HGN stimulation-induced increases in IUP and of phenylephrine-induced increases in DAP [4]
1 | 0.275 µM | 0.00813 µM | 0.0631 µM | COc1cc2nc(N3CCc4ccc(S(=O)(=O)N5CCOCC5)cc4C3)[nH]c(=O)c2cc1OC [Compound 404, 6,7-dimethoxy-2-[7-(morpholine-4-sulfonyl)-3,4-dihydro-1H-isoquinolin-2-yl]-3H-quinazolin-4-one] | –
2 | 0.347 µM | 0.00339 µM | 0.02 µM | COc1cc2nc(N3CCc4c(ncn4Cc4ccccc4)C3)[nH]c(=O)c2cc1OC [Compound 501, 2-(1-benzyl-1,4,6,7-tetrahydro-imidazo[4,5-c]pyridin-5-yl)-6,7-dimethoxy-3H-quinazolin-4-one] | –
3 | 0.0372 µM | 0.000832 µM | 0.00427 µM | COc1cc2nc(N3CCc4c(ncn4-c4ccccc4)C3)[nH]c(=O)c2cc1OC [Compound 602, 6,7-dimethoxy-2-(1-phenyl-1,4,6,7-tetrahydro-imidazo[4,5-c]pyridin-5-yl)-3H-quinazolin-4-one] | –
4 | 0.0832 µM | 0.00275 µM | 0.00589 µM | COc1ccc(-n2cnc3c2CCN(c2nc4cc(OC)c(OC)cc4c(=O)[nH]2)C3)cc1 [Compound 608, 6,7-dimethoxy-2-[1-(4-methoxy-phenyl)-1,4,6,7-tetrahydro-imidazo[4,5-c]pyridin-5-yl]-3H-quinazolin-4-one] | –
5 | 0.178 µM | 0.00269 µM | 0.0123 µM | COc1cc2nc(N3CCc4c(ncn4-c4ccc5c(c4)OCO5)C3)[nH]c(=O)c2cc1OC [Compound 612, 2-(1-benzo[1,3]dioxol-5-yl-1,4,6,7-tetrahydro-imidazo[4,5-c]pyridin-5-yl)-6,7-dimethoxy-3H-quinazolin-4-one] | –
6 | 0.0813 µM | 0.00372 µM | 0.00759 µM | COc1cc2[nH]c(N3CCc4c(ncn4C4CCCCC4)C3)nc(=O)c2cc1OC [Compound 619, 2-(1-cyclohexyl-1,4,6,7-tetrahydro-imidazo[4,5-c]pyridin-5-yl)-6,7-dimethoxy-1H-quinazolin-4-one] | –
7 | 0.398 µM | 0.00955 µM | 0.00661 µM | COc1cc2nc(N3CCc4c(cccc4NC4=NCCC4)C3)[nH]c(=O)c2cc1OC [Compound 810, 2-[5-(4,5-dihydro-3H-pyrrol-2-ylamino)-3,4-dihydro-1H-isoquinolin-2-yl]-6,7-dimethoxy-3H-quinazolin-4-one] | –
8 | 0.692 µM | 0.0251 µM | 0.0562 µM | COc1cc2nc(N3CCc4c(cccc4-c4cnccc4N)C3)[nH]c(=O)c2cc1OC [Compound 902, 2-[5-(4-amino-pyridin-3-yl)-3,4-dihydro-1H-isoquinolin-2-yl)-6,7-dimethoxy-3H-quinazolin-4-one] | –
9 | – | – | – | COc1cc2nc(N3CCN(C(=O)c4ccco4)CC3)nc(N)c2cc1OC [prazosin] | inhibited increases in IUP and DAP in similar fashion

Row | SMILES | Ki [1] | Ki [2] | Ki [3] | inhibition of HGN stimulation-induced increases in IUP and of phenylephrine-induced increases in DAP [4]
10 | COc1cc2nc(N3CCc4c(cccc4N=CN(C)C)C3)[nH]c(=O)c2cc1OC [Compound 801, N-[2-(6,7-dimethoxy-4-oxo-3,4-dihydro-quinazolin-2-yl)-1,2,3,4-tetrahydro-isoquinolin-5-yl]-N,N-dimethyl-formamidine] | 0.372 µM | 0.00275 µM | 0.00447 µM | –
